In patent US11046680B1, “Heteroaryl-substituted triazoles as APJ receptor agonists” (priority 2016, dated 2021):

These compounds were tested against human APJ receptor (Homo sapiens (Human), UniProt P35414) (assay: biochemical). Conditions: [35S]GTPγS binding, CHO membranes expressing human APJ receptor; read-out: Activity hAPJ SPA EC50 IP.
Chain of human APJ receptor (P35414 whole entry): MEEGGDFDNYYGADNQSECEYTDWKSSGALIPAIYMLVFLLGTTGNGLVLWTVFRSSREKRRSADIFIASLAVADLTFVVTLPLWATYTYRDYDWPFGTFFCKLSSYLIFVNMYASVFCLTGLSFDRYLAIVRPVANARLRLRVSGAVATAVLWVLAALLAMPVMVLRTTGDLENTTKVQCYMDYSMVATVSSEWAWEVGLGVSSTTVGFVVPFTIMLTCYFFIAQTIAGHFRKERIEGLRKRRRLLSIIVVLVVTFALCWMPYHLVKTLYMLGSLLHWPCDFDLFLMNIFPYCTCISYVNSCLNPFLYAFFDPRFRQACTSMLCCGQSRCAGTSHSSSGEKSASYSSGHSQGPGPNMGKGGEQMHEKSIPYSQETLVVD
Assay type: biochemical
Method in brief: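 GTPγS binding on membranes from CHO cells stably expressing FLAG-tagged human APJ, with optimized GDP, MgCl2 and NaCl; incubated 90 min at RT before imaging read-out.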
With COc1cccc(OC)c1-n1c(NS(=O)(=O)[C@H](C)Cc2ncc(F)cn2)nnc1-c1nc(C2CC2)cs1 (single isomer, unassigned) [Example 160.0, (R)-N-(5-(4-cyclopropylthiazol-2-yl)-4-(2,6-dimethoxyphenyl)-4H-1,2,4-triazol-3-yl)-1-(5-fluoropyrimidin-2-yl)propane-2-sulfonamide or (S)-N-(5-(4-cyclopropylthiazol-2-yl)-4-(2,6-dimethoxyphenyl)-4H-1,2,4-triazol-3-yl)-1-(5-fluoropyrimidin-2-yl)propane-2-sulfonamide] the EC50 was 2 nM. COc1cccc(OC)c1-n1c(NS(=O)(=O)[C@H](C)[C@H](C)c2ncc(F)cn2)nnc1-c1nc(C)cs1 (single isomer, unassigned) [Example 165.0] showed an EC50 of 110 nM. In the case of C=CCO[C@@H](c1ncc(F)cn1)[C@@H](C)S(=O)(=O)Nc1nnc(-c2nc(C)cs2)n1-c1c(OC)cccc1OC (single isomer, unassigned) [Example 168.0, (1S,2R)-1-(Allyloxy)-N-(4-(2,6-dimethoxyphenyl)-5-(4-methylthiazol-2-yl)-4H-1,2,4-triazol-3-yl)-1-(5-fluoropyrimidin-2-yl)propane-2-sulfonamide or (1R,2S)-1-(allyloxy)-N-(4-(2,6-dimethoxyphenyl)-5-(4-methylthiazol-2-yl)-4H-1,2,4-triazol-3-yl)-1-(5-fluoropyrimidin-2-yl)propane-2-sulfonamide], the EC50 is reported as 30 nM. In the case of C=CCO[C@@H](c1ncc(F)cn1)[C@@H](C)S(=O)(=O)Nc1nnc(-c2nc(C)cs2)n1-c1c(OC)cccc1OC (single isomer, unassigned) [Example 169.0, (1S,2R)-1-(Allyloxy)-N-(4-(2,6-dimethoxyphenyl)-5-(4-methylthiazol-2-yl)-4H-1,2,4-triazol-3-yl)-1-(5-fluoropyrimidin-2-yl)propane-2-sulfonamide or (1R,2S)-1-(allyloxy)-N-(4-(2,6-dimethoxyphenyl)-5-(4-methylthiazol-2-yl)-4H-1,2,4-triazol-3-yl)-1-(5-fluoropyrimidin-2-yl)propane-2-sulfonamide], the EC50 is reported as 0.46 nM. COc1cncc(-c2nnc(NS(=O)(=O)[C@@H](C)Cc3ncc(F)cn3)n2-c2c(OC)cccc2OC)n1 (single isomer, unassigned) [Example 188.0, (2S)-N-(4-(2,6-dimethoxyphenyl)-5-(6-methoxy-2-pyrazinyl)-4H-1,2,4-triazol-3-yl)-1-(5-fluoro-2-pyrimidinyl)-2-propanesulfonamide or (2R)-N-(4-(2,6-dimethoxyphenyl)-5-(6-methoxy-2-pyrazinyl)-4H-1,2,4-triazol-3-yl)-1-(5-fluoro-2-pyrimidinyl)-2-propanesulfonamide] gave an EC50 of 15 nM. COc1cccc(OC)c1-n1c(NS(=O)(=O)[C@@H]2C[C@H](O)CN(c3ncc(F)cn3)C2)nnc1-c1nc(C)cs1 (single isomer, unassigned) [Example 254.0, (3R,5S)-N-(4-(2,6-dimethoxyphenyl)-5-(4-methyl-1,3-thiazol-2-yl)-4H-1,2,4-triazol-3-yl)-1-(5-fluoro-2-pyrimidinyl)-5-hydroxy-3-piperidinesulfonamide or (3S,5R)-N-(4-(2,6-dimethoxyphenyl)-5-(4-methyl-1,3-thiazol-2-yl)-4H-1,2,4-triazol-3-yl)-1-(5-fluoro-2-pyrimidinyl)-5-hydroxy-3-piperidinesulfonamide] gave an EC50 of 1.2 nM. COc1cccc(OC)c1-n1c(NS(=O)(=O)[C@@H]2C[C@@H](O)CN(c3ncc(F)cn3)C2)nnc1-c1nc(C)cs1 (single isomer, unassigned) [Example 257.0, (3R,5R)-N-(4-(2,6-dimethoxyphenyl)-5-(4-methyl-1,3-thiazol-2-yl)-4H-1,2,4-triazol-3-yl)-1-(5-fluoro-2-pyrimidinyl)-5-hydroxy-3-piperidinesulfonamide or (3S,5S)-N-(4-(2,6-dimethoxyphenyl)-5-(4-methyl-1,3-thiazol-2-yl)-4H-1,2,4-triazol-3-yl)-1-(5-fluoro-2-pyrimidinyl)-5-hydroxy-3-piperidinesulfonamide] showed an EC50 of 3.9 nM.
